{"source": "ChEMBL document CHEMBL1240489", "about": "“Discovery of N-{1-[3-(3-oxo-2,3-dihydrobenzo[1,4]oxazin-4-yl)propyl]piperidin-4-yl}-2-phenylacetamide (Lu AE51090): an allosteric muscarinic M1 receptor agonist with unprecedented selectivity and procognitive potential” (J Med Chem, 2010)", "key": {"[1]": {"target": "T1, Muscarinic acetylcholine receptor M1 (Homo sapiens) (UniProt P11229)", "T1 sequence (whole entry)": "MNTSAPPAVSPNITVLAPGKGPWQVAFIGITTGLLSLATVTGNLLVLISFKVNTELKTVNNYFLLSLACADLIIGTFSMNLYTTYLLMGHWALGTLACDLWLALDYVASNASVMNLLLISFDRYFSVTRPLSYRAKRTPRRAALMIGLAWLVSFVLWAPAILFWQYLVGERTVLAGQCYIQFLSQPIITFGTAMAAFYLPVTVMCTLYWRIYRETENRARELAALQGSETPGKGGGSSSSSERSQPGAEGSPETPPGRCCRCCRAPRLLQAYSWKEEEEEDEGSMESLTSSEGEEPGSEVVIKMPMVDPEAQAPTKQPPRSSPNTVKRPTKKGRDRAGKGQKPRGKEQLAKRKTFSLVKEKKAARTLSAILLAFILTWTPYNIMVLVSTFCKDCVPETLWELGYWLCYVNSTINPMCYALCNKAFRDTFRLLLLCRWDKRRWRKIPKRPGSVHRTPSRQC", "assay": "Agonist activity at human muscarinic M1 receptor expressed in CHO-K1 cells assessed as increase of acetylcholine-induced calcium flux by FLIPR assay in presence of atropine", "type": "functional, cell-based"}, "[2]": {"assay": "Clearance in rat plasma at 1 mg/kg, iv and 2 mg/kg, po", "type": "ADME, organism-based"}, "[3]": {"assay": "Terminal half life in rat plasma at 1 mg/kg, iv and 2 mg/kg, po", "type": "ADME, organism-based"}, "Mus musculus": {"system": "Mus musculus", "assay": "Reversal of 60 seconds delay-induced memory decay in sc dosed C57Bl/6J mouse assessed as positive alteration administered for 1 week by Y-maze test", "type": "functional, organism-based"}, "[4]": {"assay": "Drug level in C57/6J mouse brain at 20 mg/kg, sc after 60 mins", "type": "ADME, organism-based", "design": "dose 20 mg/kg, route subcutaneous", "details": "read-out: Activity"}, "Brain": {"system": "Brain", "assay": "Protein binding in C57/6J mouse brain homogenates at 20 mg/kg, sc by equilibrium dialysis", "type": "ADME, organism-based", "design": "dose 20 mg/kg, route subcutaneous", "details": "in vivo"}, "Acetylcholinesterase": {"target": "Acetylcholinesterase (Homo sapiens, UniProt P22303)", "sequence (P22303 whole entry)": "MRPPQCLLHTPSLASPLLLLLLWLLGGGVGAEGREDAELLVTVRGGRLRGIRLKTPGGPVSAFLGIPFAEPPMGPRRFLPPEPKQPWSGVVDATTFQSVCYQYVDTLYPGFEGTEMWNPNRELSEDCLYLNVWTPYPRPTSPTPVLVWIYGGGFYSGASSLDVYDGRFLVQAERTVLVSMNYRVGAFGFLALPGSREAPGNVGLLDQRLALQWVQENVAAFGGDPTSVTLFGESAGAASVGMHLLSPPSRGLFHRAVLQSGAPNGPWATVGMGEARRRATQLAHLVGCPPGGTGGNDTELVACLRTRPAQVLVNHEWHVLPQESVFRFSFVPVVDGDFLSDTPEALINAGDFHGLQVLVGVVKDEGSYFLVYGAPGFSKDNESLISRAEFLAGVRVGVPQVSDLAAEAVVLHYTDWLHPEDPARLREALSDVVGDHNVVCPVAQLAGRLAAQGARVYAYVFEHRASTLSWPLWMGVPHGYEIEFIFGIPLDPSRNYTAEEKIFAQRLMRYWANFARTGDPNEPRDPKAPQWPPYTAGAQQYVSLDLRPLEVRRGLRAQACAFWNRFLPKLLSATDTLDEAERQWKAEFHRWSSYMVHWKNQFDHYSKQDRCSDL", "assay": "Binding affinity to human acetylcholine esterase by radioligand displacement assay"}, "Histamine H3 receptor": {"target": "Histamine H3 receptor (Homo sapiens, UniProt Q9Y5N1)", "sequence (Q9Y5N1 whole entry)": "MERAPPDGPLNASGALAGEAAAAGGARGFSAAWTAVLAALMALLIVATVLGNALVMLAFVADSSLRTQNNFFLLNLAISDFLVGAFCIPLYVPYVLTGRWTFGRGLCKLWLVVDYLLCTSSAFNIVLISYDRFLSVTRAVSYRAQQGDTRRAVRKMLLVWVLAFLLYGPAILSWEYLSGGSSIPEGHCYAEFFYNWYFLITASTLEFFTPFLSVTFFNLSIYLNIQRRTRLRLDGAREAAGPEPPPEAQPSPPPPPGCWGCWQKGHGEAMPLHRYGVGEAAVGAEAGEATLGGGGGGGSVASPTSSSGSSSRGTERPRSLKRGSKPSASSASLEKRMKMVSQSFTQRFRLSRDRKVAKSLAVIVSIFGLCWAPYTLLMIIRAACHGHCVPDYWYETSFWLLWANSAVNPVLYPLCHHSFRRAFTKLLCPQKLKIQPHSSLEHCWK", "assay": "Binding affinity to human histamine H3 receptor by radioligand displacement assay"}, "Phosphodiesterase 4": {"target": "Phosphodiesterase 4 (Homo sapiens, UniProt P27815+Q08499+Q07343+Q08493)", "assay": "Binding affinity to human PDE4 rolipram binding site by radioligand displacement assay", "type": "protein assay"}, "[5]": {"target": "Beta-1 adrenergic receptor (Homo sapiens, UniProt P08588)", "sequence (P08588 whole entry)": "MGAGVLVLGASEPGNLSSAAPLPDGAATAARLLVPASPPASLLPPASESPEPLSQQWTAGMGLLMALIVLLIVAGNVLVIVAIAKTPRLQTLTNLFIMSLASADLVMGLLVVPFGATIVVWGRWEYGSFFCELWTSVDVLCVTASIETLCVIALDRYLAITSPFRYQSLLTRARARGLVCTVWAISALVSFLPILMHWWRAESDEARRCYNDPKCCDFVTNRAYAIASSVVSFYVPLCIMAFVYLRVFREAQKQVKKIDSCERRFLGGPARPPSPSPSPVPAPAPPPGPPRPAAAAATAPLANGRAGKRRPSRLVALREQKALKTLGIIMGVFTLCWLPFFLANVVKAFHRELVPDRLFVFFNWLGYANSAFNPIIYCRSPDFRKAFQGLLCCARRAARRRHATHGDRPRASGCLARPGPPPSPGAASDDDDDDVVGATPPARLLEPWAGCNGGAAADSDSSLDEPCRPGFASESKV", "assay": "Binding affinity to human adrenergic beta-1 receptor by radioligand displacement assay"}, "[6]": {"assay": "Binding affinity to voltage gated Na channel site 2 by radioligand displacement assay"}, "[7]": {"target": "T2, Muscarinic acetylcholine receptor M4 (Homo sapiens, UniProt P08173)", "T2 sequence (P08173 whole entry)": "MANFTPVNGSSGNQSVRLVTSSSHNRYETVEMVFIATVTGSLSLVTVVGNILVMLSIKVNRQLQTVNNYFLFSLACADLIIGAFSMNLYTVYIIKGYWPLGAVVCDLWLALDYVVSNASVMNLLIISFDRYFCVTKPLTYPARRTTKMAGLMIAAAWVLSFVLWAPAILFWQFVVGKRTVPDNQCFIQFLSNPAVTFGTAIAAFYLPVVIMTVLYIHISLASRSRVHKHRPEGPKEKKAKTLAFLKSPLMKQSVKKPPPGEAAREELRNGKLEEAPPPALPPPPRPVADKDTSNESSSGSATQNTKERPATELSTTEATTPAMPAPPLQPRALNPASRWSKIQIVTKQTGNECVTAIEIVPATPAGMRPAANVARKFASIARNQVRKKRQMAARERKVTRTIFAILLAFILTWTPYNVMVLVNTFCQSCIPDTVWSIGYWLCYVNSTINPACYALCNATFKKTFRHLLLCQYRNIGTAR", "assay": "Binding affinity to human muscarinic M4 receptor by radioligand displacement assay"}, "Endothelin-1 receptor": {"target": "Endothelin-1 receptor (Homo sapiens, UniProt P25101)", "assay": "Binding affinity to human ETA receptor by radioligand displacement assay"}, "[8]": {"target": "5-hydroxytryptamine receptor 4 (Homo sapiens, UniProt Q13639)", "sequence (Q13639 whole entry)": "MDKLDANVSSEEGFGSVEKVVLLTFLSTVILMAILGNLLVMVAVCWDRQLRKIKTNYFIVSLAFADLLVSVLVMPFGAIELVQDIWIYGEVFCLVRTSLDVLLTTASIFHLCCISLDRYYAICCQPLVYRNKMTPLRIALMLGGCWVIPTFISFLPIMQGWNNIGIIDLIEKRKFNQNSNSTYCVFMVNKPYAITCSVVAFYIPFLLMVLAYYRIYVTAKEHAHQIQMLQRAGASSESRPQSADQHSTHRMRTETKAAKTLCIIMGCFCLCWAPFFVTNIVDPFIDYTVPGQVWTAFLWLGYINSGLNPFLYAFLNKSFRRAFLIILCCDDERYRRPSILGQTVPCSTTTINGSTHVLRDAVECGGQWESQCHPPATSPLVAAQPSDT", "assay": "Binding affinity to human 5-HT4e receptor by radioligand displacement assay"}, "[9]": {"target": "T3, Muscarinic acetylcholine receptor M1 (Homo sapiens, UniProt P11229)", "T3 sequence (P11229 whole entry)": "T1 sequence (whole entry)", "assay": "Binding affinity to human muscarinic M1 receptor by radioligand displacement assay"}, "[10]": {"target": "5-hydroxytryptamine receptor 2C (Homo sapiens, UniProt P28335)", "sequence (P28335 whole entry)": "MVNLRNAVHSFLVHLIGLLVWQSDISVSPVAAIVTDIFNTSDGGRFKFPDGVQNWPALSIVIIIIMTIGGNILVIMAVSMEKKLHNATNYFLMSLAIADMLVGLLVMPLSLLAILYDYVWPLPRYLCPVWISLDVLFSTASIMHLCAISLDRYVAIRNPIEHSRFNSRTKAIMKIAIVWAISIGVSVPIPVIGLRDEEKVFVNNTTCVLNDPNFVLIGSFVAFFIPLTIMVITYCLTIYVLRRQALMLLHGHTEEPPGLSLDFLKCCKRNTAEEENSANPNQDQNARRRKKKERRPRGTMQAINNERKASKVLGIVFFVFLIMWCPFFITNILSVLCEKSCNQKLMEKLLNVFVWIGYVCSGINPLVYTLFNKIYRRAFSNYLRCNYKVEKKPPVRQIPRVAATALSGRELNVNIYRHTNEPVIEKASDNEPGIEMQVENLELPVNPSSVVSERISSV", "assay": "Binding affinity to human 5HT2C receptor agonist site by radioligand displacement assay"}, "D(3) dopamine receptor": {"target": "D(3) dopamine receptor (Homo sapiens, UniProt P35462)", "assay": "Binding affinity to human dopamine D3 receptor by radioligand displacement assay"}, "[11]": {"target": "Gastrin/cholecystokinin type B receptor (Homo sapiens, UniProt P32239)", "assay": "Binding affinity to human CCK2 receptor by radioligand displacement assay"}, "[12]": {"assay": "Binding affinity to human muscle-type nicotinic acetylcholine receptor by radioligand displacement assay"}, "[13]": {"target": "Sodium-dependent serotonin transporter (Homo sapiens, UniProt P31645)", "sequence (P31645 whole entry)": "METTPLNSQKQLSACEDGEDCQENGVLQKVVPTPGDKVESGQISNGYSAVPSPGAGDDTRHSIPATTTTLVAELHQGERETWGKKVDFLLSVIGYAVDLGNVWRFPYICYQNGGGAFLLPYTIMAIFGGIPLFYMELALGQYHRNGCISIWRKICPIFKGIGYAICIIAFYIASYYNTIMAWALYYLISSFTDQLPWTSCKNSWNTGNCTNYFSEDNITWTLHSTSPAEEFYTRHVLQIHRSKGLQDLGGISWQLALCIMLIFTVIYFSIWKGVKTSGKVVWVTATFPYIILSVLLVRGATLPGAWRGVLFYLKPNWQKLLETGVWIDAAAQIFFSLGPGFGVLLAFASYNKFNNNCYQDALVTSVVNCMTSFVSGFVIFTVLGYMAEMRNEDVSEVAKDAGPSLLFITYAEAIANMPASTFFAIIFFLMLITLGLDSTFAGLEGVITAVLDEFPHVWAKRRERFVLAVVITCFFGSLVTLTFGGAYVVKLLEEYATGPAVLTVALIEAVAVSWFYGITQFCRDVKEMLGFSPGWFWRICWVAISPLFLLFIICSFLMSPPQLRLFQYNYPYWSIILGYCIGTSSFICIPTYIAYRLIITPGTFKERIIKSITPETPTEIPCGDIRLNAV", "assay": "Binding affinity to human 5-HT transporter by radioligand displacement assay"}, "[14]": {"target": "5-hydroxytryptamine receptor 1B (Homo sapiens, UniProt P28222)", "sequence (P28222 whole entry)": "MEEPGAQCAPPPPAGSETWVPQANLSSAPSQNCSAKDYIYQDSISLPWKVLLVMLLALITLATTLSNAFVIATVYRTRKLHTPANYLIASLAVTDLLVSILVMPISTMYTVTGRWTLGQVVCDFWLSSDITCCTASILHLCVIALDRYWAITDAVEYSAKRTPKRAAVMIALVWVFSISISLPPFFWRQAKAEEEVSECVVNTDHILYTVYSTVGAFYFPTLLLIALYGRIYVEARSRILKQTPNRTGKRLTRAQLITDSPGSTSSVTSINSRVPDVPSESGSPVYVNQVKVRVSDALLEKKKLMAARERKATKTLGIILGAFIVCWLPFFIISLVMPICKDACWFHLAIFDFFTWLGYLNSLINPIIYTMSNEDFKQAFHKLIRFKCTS", "assay": "Binding affinity to 5-HT1B receptor by radioligand displacement assay"}, "[15]": {"assay": "Binding affinity to GABA transporter by radioligand displacement assay"}, "[16]": {"assay": "Binding affinity to human delta2 opioid receptor by radioligand displacement assay"}, "[17]": {"assay": "Binding affinity to L-type Ca2+ channel DHP binding site by radioligand displacement assay"}, "[18]": {"target": "Alpha-1A adrenergic receptor (Homo sapiens, UniProt P35348)", "sequence (P35348 whole entry)": "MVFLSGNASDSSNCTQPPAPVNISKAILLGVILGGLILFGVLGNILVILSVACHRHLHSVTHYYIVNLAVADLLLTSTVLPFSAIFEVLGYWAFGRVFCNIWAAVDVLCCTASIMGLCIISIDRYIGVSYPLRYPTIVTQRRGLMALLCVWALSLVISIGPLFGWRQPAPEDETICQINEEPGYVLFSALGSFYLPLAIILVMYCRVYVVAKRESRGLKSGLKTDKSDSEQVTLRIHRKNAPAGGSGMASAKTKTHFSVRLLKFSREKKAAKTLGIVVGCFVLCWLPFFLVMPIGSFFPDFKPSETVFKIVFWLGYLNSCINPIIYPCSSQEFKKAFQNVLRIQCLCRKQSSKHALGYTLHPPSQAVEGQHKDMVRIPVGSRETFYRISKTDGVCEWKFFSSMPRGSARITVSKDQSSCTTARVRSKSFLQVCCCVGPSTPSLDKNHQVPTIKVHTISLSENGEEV", "assay": "Binding affinity to human adrenergic alpha1A receptor by radioligand displacement assay"}, "[19]": {"target": "Tyrosine-protein kinase Lyn (Homo sapiens, UniProt P07948)", "sequence (P07948 whole entry)": "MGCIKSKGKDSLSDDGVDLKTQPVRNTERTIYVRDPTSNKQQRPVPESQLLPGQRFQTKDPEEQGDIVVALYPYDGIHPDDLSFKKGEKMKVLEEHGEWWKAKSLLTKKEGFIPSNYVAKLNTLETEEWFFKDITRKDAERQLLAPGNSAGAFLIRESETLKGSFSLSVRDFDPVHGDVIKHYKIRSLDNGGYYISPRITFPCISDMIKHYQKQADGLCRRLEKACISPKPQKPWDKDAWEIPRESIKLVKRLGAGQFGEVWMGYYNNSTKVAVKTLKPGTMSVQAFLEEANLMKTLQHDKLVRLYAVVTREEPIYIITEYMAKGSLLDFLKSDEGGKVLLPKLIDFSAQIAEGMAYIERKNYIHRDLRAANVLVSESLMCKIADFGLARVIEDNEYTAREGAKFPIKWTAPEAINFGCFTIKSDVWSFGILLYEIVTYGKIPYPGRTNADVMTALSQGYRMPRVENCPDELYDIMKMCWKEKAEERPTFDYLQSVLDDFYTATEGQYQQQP", "assay": "Binding affinity to Lyn by enzyme assay"}, "[20]": {"assay": "Binding affinity to PDE3 by enzyme assay"}, "[21]": {"target": "Mitogen-activated protein kinase 14 (Homo sapiens, UniProt Q16539)", "sequence (Q16539 whole entry)": "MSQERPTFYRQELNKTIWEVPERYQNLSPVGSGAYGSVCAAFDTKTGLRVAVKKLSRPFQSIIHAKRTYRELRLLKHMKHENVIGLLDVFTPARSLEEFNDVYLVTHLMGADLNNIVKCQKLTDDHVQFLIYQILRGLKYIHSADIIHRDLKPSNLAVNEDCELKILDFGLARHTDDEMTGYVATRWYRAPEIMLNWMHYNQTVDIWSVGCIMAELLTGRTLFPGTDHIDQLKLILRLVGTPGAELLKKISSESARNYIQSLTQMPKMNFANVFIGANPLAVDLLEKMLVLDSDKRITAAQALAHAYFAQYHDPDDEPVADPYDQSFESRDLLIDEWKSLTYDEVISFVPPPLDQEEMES", "assay": "Binding affinity to p38alpha by enzyme assay"}}, "note": "The source made the active and inactive calls. The calls are words filed in the database; no cut-off is given here.", "data": [{"smiles": "O=C(Cc1ccccc1)NC1CCN(CCCN2C(=O)COc3ccccc32)CC1", "values": [{"measurement": "Activity", "setting": "[1]", "result": "inactive"}, {"measurement": "clearance", "setting": "[2]", "result": 83.3, "unit": "mL/min/kg"}, {"measurement": "half-life", "setting": "[3]", "result": 48, "unit": "min"}, {"measurement": "Activity", "setting": "Mus musculus", "result": "Dose-dependent effect"}, {"measurement": "concentration at 1 h", "setting": "[4]", "result": 240, "unit": "ng/g"}, {"measurement": "Activity", "setting": "Brain", "result": 70, "unit": "%"}, {"measurement": "Ki", "setting": "Acetylcholinesterase", "result": "≥ 1000", "unit": "nM"}, {"measurement": "Ki", "setting": "Histamine H3 receptor", "result": "≥ 1000", "unit": "nM"}, {"measurement": "Ki", "setting": "Phosphodiesterase 4", "result": ">= 1000 nM"}, {"measurement": "Ki", "setting": "[5]", "result": "≥ 1000", "unit": "nM"}, {"measurement": "Ki", "setting": "[6]", "result": "≥ 1000", "unit": "nM"}, {"measurement": "Ki", "setting": "[7]", "result": "≥ 1000", "unit": "nM"}, {"measurement": "Ki", "setting": "Endothelin-1 receptor", "result": "≥ 1000", "unit": "nM"}, {"measurement": "Ki", "setting": "[8]", "result": "≥ 1000", "unit": "nM"}, {"measurement": "Ki", "setting": "[9]", "result": "≥ 1000", "unit": "nM"}, {"measurement": "Ki", "setting": "[10]", "result": "≥ 1000", "unit": "nM"}, {"measurement": "Ki", "setting": "D(3) dopamine receptor", "result": "≥ 1000", "unit": "nM"}, {"measurement": "Ki", "setting": "[11]", "result": "≥ 1000", "unit": "nM"}, {"measurement": "Ki", "setting": "[12]", "result": "≥ 1000", "unit": "nM"}, {"measurement": "Ki", "setting": "[13]", "result": "≥ 1000", "unit": "nM"}, {"measurement": "Ki", "setting": "[14]", "result": "≥ 1000", "unit": "nM"}, {"measurement": "Ki", "setting": "[15]", "result": "≥ 1000", "unit": "nM"}, {"measurement": "Ki", "setting": "[16]", "result": "≥ 1000", "unit": "nM"}, {"measurement": "Ki", "setting": "[17]", "result": "≥ 1000", "unit": "nM"}, {"measurement": "Ki", "setting": "[18]", "result": 260, "unit": "nM"}, {"measurement": "Ki", "setting": "[19]", "result": "≥ 1000", "unit": "nM"}, {"measurement": "Ki", "setting": "[20]", "result": "≥ 1000", "unit": "nM"}, {"measurement": "Ki", "setting": "[21]", "result": "≥ 1000", "unit": "nM"}]}]}
